In patent US11351224B2, “Pharmaceutical composition for preventing and treating transplant rejection” (IUCF-HYU (INDUSTRY-UNIVERSITY COOPERATION FOUNDATION …, priority 2015, dated 2022):

How the values were obtained:
[1] = test system: spleen cells activated by anti-CD3 and anti-CD28 antibodies; test: IL-2 expression inhibition in spleen cells activated by anti-CD3 and anti-CD28 antibodies (ELISA); format: cell-based, mouse; details: for IL-2 expression inhibitory efficiency compared to WT: 0.5, 1, 2 or 5 μM
Experimental: The spleen cells activated by anti-CD3 and anti-CD28 antibodies were treated with 1 μM of each of PBS, the dNP2-ctCTLA-4 fusion product and the TAT-ctCTLA-4 fusion product, and IL-2 expression inhibitory efficiency was measured by ELISA and shown in FIG. 5.
First, a 96-well plate was coated at a concentration of 0.1 μg/well with anti-CD3 (anti-mouse CD3) and anti-CD28 (anti-mouse CD28) monoclonal antibodies at 37° C. for 5 hours, spleen cells were isolated from 7-week-old C57BL/6, and the isolated spleen cells were suspended to be single cells. The spleen cells suspended through the process were seeded at 2.5×10^5 on each well coated with anti-CD3 (anti-mouse CD3) and anti-28 (anti-mouse CD28) monoclonal antibodies, and were treated with 1 μM PBS, the dNP2-ctCTLA-4 fusion product and the TAT-ctCTLA-4 fusion product, and then activated for 24 hours.
The spleen cells activated by the anti-CD3 and anti-CD28 antibodies were each treated with the dNP2-ctCTLA-4 fusion product and the dNP2-EGFP fusion product, and IL-2 expression inhibitory efficiency was measured by ELISA and shown in FIG. 6A. At this time, ELISA was conducted using the kit produced by Biolegend Corporation in accordance with the standard protocol provided by the manufacturer. In addition, spleen cells activated by PMA/ionomycin were treated with the dNP2-ctCTLA-4 fusion product and the dNP2-EGFP fusion product, and IL-2 expression inhibitory efficiency was measured by ELISA and is shown in FIG. 6B.
At this time, the activated spleen cells were activated with the anti-CD3/CD28 antibody or PMA/ionomycin in the presence of 1 μM PBS, the dNP2-ctCTLA-4 fusion product or dNP2-EGFP fusion product for 24 hours.
The spleen cells activated by the anti-CD3 and anti-CD28 antibodies were each treated with 0.5, 1, 2 or 5 μM WT, 1YF, 2YF and DYF, and IL-2 expression inhibitory abilities were measured by ELISA and are shown in FIG. 8.
At this time, the activated spleen cells were activated with anti-CD3/CD28 antibody in the presence of 1 μM PBS, 0.5, 1, 2 or 5 μM WT, 1YF, 2YF, DYF for 24 hours.
The spleen cells activated by anti-CD3 and anti-CD28 antibodies were each treated with 0.1, 0.5, 1, 2 or 5 μM dNP2-TAMRA fusion product, dNP2-CTLA-4 fusion product and dNP2-ctCTLA-4-fm3 fusion product, and IL-2 expression inhibitory efficiency was measured by ELISA and is shown in FIG. 11. At this time, the activated spleen cells were activated with the anti-CD3/CD28 antibody in the presence of 1 μM PBS, 0.1, 0.5, 1, 2 or 5 μM dNP2-TAMRA fusion product, dNP2-CTLA-4 fusion product and dNP2-ctCTLA-4-fm3 fusion product for 24 hours.

[2] = test system: primary mouse CD4-T-cells; test: Intracellular transfer efficiency of ctCTLA-4 peptide and CPP-ctCTLA-4 fusion products in mouse spleen cells; format: cell-based; details: 1 μM, one hour, anti-HA staining
Experimental: Jurkat T-cells were cultured at a density of 5.0×10^5 cells/well on a 24-well plate in RPMI 1640 medium. After the cells were seeded, respective proteins were added at designated times. After culturing, the cells were collected and washed three times with phosphate buffered saline (PBS). Intracellular fluorescence was analyzed with a fluorescence-activated cell sorting (FACS) Canto II flow cytometer (BD Bioscience) and data were analyzed using FlowJo software (Tree Star, INC.). The spleen isolated from the 6-week-old C57BL/6 mice were loaded on a 60 mm×15 mm cell culture dish containing 3 ml of PBS. A single cell suspension was physically prepared using a cell strainer having pores with a size of […], 10 ml of fresh PBS was added thereto and the resulting mixture was centrifuged. […]
Specifically, the transfer efficiency was measured using “3) In vitro transfer efficiency” in the test method, which will be briefly described below.
Mouse spleen cells were cultured together with 1 μM of a ctCTLA-4 peptide, or a dNP2-ctCTLA-4 or Hph-1-ctCTLA-4 fusion product for one hour, and the ctCTLA-4 peptide or CPP-linked ctCTLA-4 fusion products, which had been transferred into cells, were stained with anti-HA antibodies. […] The cells were harvested and intracellular fluorescence was measured using a flow cytometer to measure ctCTLA-4 protein introduction efficiency in primary mouse CD4-T-cells.

CD4 T-cells = test: Inhibition of CD4 T-cell activation (CD25 expression) in mouse spleen cells (FACS); format: cell-based
Experimental: The present test was conducted to check whether or not the dNP2-TAMRA, dNP2-ctCTLA-4 fusion product and dNP2-ctCTLA-4-fm3 fusion product according to the present invention could inhibit activation of CD4 T-cells in the mouse model. At this time, CD25 was an activation marker which has an increasing expression level when T-cells were activated, and whether or not activation of CD4 T-cells was inhibited based on the amount of expressed CD25 was determined. Specifically, the test method was as follows.
A 96-well plate was coated with 0.1 μg of anti-CD3 and anti-CD28 antibodies in a cell incubator at 37° C. under […] for 5 hours. Then, isolated spleen cells of mice were seeded in a density of 2.5×10^5 on each well. The cells were treated with PBS or 0.1, 0.5, 1, 2 or 5 μM dNP2-TAMRA, dNP2-ctCTLA-4 or dNP2-ctCTLA-4-Fm, and then cultured in a cell incubator at 37° C. under […] for 24 hours. Then, the cells were stained with APC fluorescence-conjugated anti-CD4 mAb and PE fluorescence-fused anti-CD25 mAb at 4° C. for 20 minutes. Then, the cells produced through the aforementioned process were analyzed by a flow cytometer (FACS) to compare amounts of expressed CD25.

[3] = 0.1, 0.5, 1, 2 or 5 μM, 24 hours

Row | Substance | IL-2 expression inhibitory efficiency compared to WT ([1]; 24 hours) | IL-2 expression inhibitory effects of ctCTLA-4 fragment peptides [1] | further results
1 | 1YF: ctCTLA-4 variant, Y residue of the 1Y part substituted by F (KMLKKRSPLTTGVFVKMPPTEPECEKQFQPYFIPIN; ctCTLA-4 1YF) | significant deterioration in IL-2 expression inhibitory efficiency |  | 
2 | 2YF: ctCTLA-4 variant, Y residue of the 2Y part substituted by F (KMLKKRSPLTTGVYVKMPPTEPECEKQFQPFFIPIN; ctCTLA-4 2YF) | significant deterioration in IL-2 expression inhibitory efficiency |  | 
3 | DYF: ctCTLA-4 variant, Y residues of both 1Y and 2Y parts substituted by F (KMLKKRSPLTTGVFVKMPPTEPECEKQFQPFFIPIN; ctCTLA-4 DYF) | significant deterioration in IL-2 expression inhibitory efficiency |  | 
4 | Hph-1-ctCTLA-4: fusion product of cell-penetrating peptide Hph-1 (Sequence ID No. 9) linked to the N-end of ctCTLA-4 peptide (YARVRRRGPRRKMLKKRSPLTTGVYVKMPPTEPECEKQFQPYFIPIN; Hph-1; ctCTLA-4) |  |  | intracellular transfer efficiency [2]: further improved
5 | ctCTLA-4-fm1: peptide fragment having an amino acid sequence represented by Sequence ID No. 2 (YVKMPPTEPE; ctCTLA-4 fm1) |  | excellent IL-2 expression inhibitory effects | 
6 | ctCTLA-4-fm2: peptide fragment having an amino acid sequence represented by Sequence ID No. 3 (YFIPIN; ctCTLA-4 fm2) |  | excellent IL-2 expression inhibitory effects | 
7 | ctCTLA-4-fm3: fusion peptide of Sequence ID No. 4, wherein Sequence ID No. 2 is combined with Sequence ID No. 3 (YVKMPPTEPEYFIPIN; ctCTLA-4 fm3) |  | excellent IL-2 expression inhibitory effects | 
8 | ctCTLA-4: peptide of Sequence ID No. 1, 188th to 213th amino acid of the CTLA-4 protein cytoplasmic domain (KMLKKRSPLTTGVYVKMPPTEPECEKQFQPYFIPIN; ctCTLA-4) |  |  | intracellular transfer efficiency [2]: excellent intracellular transfer efficiency
9 | dNP2-ctCTLA-4-fm3: fusion product of fusion peptide ctCTLA-4-fm3 (Sequence ID No. 4) and cell-penetrating peptide dNP2 (Sequence ID No. 8) (KIKKVKKKGRKGSKIKKVKKKGRKYVKMPPTEPEYFIPIN; dNP2; ctCTLA-4 fm3) |  |  | intracellular transfer efficiency (FIG. 10) (CD4 T-cells; 0.1 μM): excellent intracellular transfer efficiency; CD25 expression in CD4 T-cells (CD4 T-cells; [3]): efficacy similar thereto; IL-2 expression inhibition [1, 3]: excellent inhibitory activity against IL-2 expression, comparable to the dNP2-ctCTLA-4 fusion protein
